According to publication PMC7869707 (European Journal of Medicinal Chemistry, 2021):
pIC50, pKd: −log10 of the molar value.

Tests used:
SARS-CoV-2 PsV = experiment: microbe, parasite or virus in culture; assay type: cell-based; conditions: for pIC50: Severe acute respiratory syndrome coronavirus 2, 293T/ACE2, 48 h, read-out: IC50 (50% inhibitory concentration) against infection of 293T-ACE2 cells by SARS-CoV-2 PsV
VSV-G PsV = assay type: cell-based
293T-ACE2 cells = experiment: Cytotoxicity assay; assay type: cell-based; conditions: MTT
[1] = tested on: SARS-CoV-2 S protein mediated membrane fusion of Vero-E6 cells; assay type: cell-based
SARS-CoV-2 S-trimer = SARS-CoV-2 S-trimer (Severe acute respiratory syndrome coronavirus 2, UniProt P0DTC2); experiment: biochemical; assay type: binding
Vero-E6 cells = experiment: Cytotoxicity assay; assay type: cell-based; conditions: MTT
[2] = target: SARS-CoV-2 S binding to the ACE2 receptor (Severe acute respiratory syndrome coronavirus 2, UniProt P0DTC2)
SARS-CoV-2 S2 subunit = SARS-CoV-2 S2 subunit (Severe acute respiratory syndrome coronavirus 2, UniProt P0DTC2); assay type: binding

SMILES: COc1ccccc1NC(=O)[C@]12CCC(C)(C)C[C@H]1C1=CC[C@@H]3[C@@]4(C)CC[C@H](O[C@@H]5O[C@H](CO)[C@@H](O[C@@H]6O[C@@H](C)[C@H](O)[C@@H](O)[C@H]6O)[C@H](O)[C@H]5O[C@@H]5O[C@@H](C)[C@H](O)[C@@H](O)[C@H]5O)C(C)(C)[C@@H]4CC[C@@]3(C)[C@]1(C)CC2 [Compound 12b, N-{3β-O-[2,4-di-O-(a-L-rhamnopyranosyl)-β-D-glucopyranosyl]-olean-12-en-28-oyl}-2-methoxyaniline]
- pIC50 (SARS-CoV-2 PsV): > 5.22
- Inhibition of VSV-G pseudoviral transduction (VSV-G PsV): no effect

SMILES: C[C@@H]1O[C@@H](O[C@H]2[C@H](O[C@H]3CC[C@]4(C)[C@H]5CC=C6[C@@H]7CC(C)(C)CC[C@]7(C(=O)NCc7ccco7)CC[C@@]6(C)[C@]5(C)CC[C@H]4C3(C)C)O[C@H](CO)[C@@H](O[C@@H]3O[C@@H](C)[C@H](O)[C@@H](O)[C@H]3O)[C@@H]2O)[C@H](O)[C@H](O)[C@H]1O [Compound 12h, N-{3β-O-[2,4-di-O-(a-L-rhamnopyranosyl)-β-D-glucopyranosyl]-olean-12-en-28-oyl}-2-furyl-methylamin]
- Potency against SARS-CoV-2 PsV (SARS-CoV-2 PsV): lacked potency

SMILES: C[C@@H]1O[C@@H](O[C@H]2[C@H](O[C@H]3CC[C@]4(C)[C@H]5CC=C6[C@@H]7CC(C)(C)CC[C@]7(C(=O)NCc7ccccn7)CC[C@@]6(C)[C@]5(C)CC[C@H]4C3(C)C)O[C@H](CO)[C@@H](O[C@@H]3O[C@@H](C)[C@H](O)[C@@H](O)[C@H]3O)[C@@H]2O)[C@H](O)[C@H](O)[C@H]1O [Compound 12g, N-{3β-O-[2,4-di-O-(a-L-rhamnopyranosyl)-β-D-glucopyranosyl]-olean-12-en-28-oyl}-2-pyridinemethanamine]
- Potency against SARS-CoV-2 PsV (SARS-CoV-2 PsV): loss of potency

SMILES: C[C@@H]1O[C@@H](O[C@H]2[C@H](O[C@H]3CC[C@]4(C)[C@H]5CC=C6[C@@H]7CC(C)(C)CC[C@]7(C(=O)OCc7ccccc7)CC[C@@]6(C)[C@]5(C)CC[C@H]4C3(C)C)O[C@H](CO)[C@@H](O[C@@H]3O[C@@H](C)[C@H](O)[C@@H](O)[C@H]3O)[C@@H]2O)[C@H](O)[C@H](O)[C@H]1O [Compound 2, 3β-O-[2,4-di-O-(α-L-rhamnopyranosyl)-β-D-glucopyranosyl]-olean-12-en-28-oic acid benzyl ester]
- Cytotoxicity against 293T-ACE2 cells (293T-ACE2 cells): moderate cytotoxicity

SMILES: C[C@@H]1O[C@@H](O[C@H]2[C@H](O[C@H]3CC[C@]4(C)[C@H]5CC=C6[C@@H]7CC(C)(C)CC[C@]7(C(=O)NCc7ccccc7F)CC[C@@]6(C)[C@]5(C)CC[C@H]4C3(C)C)O[C@H](CO)[C@@H](O[C@@H]3O[C@@H](C)[C@H](O)[C@@H](O)[C@H]3O)[C@@H]2O)[C@H](O)[C@H](O)[C@H]1O [Compound 12k, N-{3β-O-[2,4-di-O-(a-L-rhamnopyranosyl)-β-D-glucopyranosyl]-olean-12-en-28-oyl}-2-fluorobenzylamine]
- pIC50 (SARS-CoV-2 PsV): > 5.22
- Inhibition of VSV-G pseudoviral transduction (VSV-G PsV): no effect

SMILES: C[C@@H]1O[C@@H](O[C@H]2[C@H](O[C@H]3CC[C@]4(C)[C@H]5CC=C6[C@@H]7CC(C)(C)CC[C@]7(C(=O)NCc7cccs7)CC[C@@]6(C)[C@]5(C)CC[C@H]4C3(C)C)O[C@H](CO)[C@@H](O[C@@H]3O[C@@H](C)[C@H](O)[C@@H](O)[C@H]3O)[C@@H]2O)[C@H](O)[C@H](O)[C@H]1O [Compound 12i, N-{3β-O-[2,4-di-O-(a-L-rhamnopyranosyl)-β-D-glucopyranosyl]-olean-12-en-28-oyl}-2-thiophenemethylamine]
- pIC50 (SARS-CoV-2 PsV): > 5.22
- Inhibition of VSV-G pseudoviral transduction (VSV-G PsV): no effect

SMILES: C[C@@H]1O[C@@H](O[C@H]2[C@H](O[C@H]3CC[C@]4(C)[C@H]5CC=C6[C@@H]7CC(C)(C)CC[C@]7(C(=O)NCc7ccccc7)CC[C@@]6(C)[C@]5(C)CC[C@H]4C3(C)C)O[C@H](CO)[C@@H](O[C@@H]3O[C@@H](C)[C@H](O)[C@@H](O)[C@H]3O)[C@@H]2O)[C@H](O)[C@H](O)[C@H]1O [Compound 12f, N-{3β-O-[2,4-di-O-(a-L-rhamnopyranosyl)-β-D-glucopyranosyl]-olean-12-en-28-oyl}-benzylamine]
- Inhibition of membrane fusion mediated by SARS-CoV-2 S protein [1]: remarkably inhibit
- Inhibition of VSV-G pseudoviral transduction (VSV-G PsV): no inhibition
- pKd (SARS-CoV-2 S-trimer): 6.03
- Cytotoxicity against Vero-E6 cells (Vero-E6 cells): negligible cytotoxicity
- Effect on SARS-CoV-2 S binding to the ACE2 receptor [2]: no effect
- Cytotoxicity against 293T-ACE2 cells (293T-ACE2 cells): negligible cytotoxicity
- Fold higher affinity with S2 subunit in relation to S1 subunit (SARS-CoV-2 S2 subunit): more than 1000 fold
